Test results published in patent US8410161B2, “Thioxanthone ring system derivatives” (National Defense Medical Center, priority 2010, dated 2013).

Experiments:
Type in all cases: cell-based
ACHN = assay: NCI in vitro DTP human cell line screen, ACHN; details: Renal Cancer, 1.00E−5 Molar
Experimental: (§1) Then, a cell toxicity assay of the cancer lines made by National Cancer Institute will be discussed as follows. The cell toxicity assay is performed by choosing ten compounds (existing certification numbers) from the 59 compounds disclosed in the present invention first.

HCT-116 = assay: NCI in vitro DTP human cell line screen, HCT-116; details: Colon Cancer, 1.00E−5 Molar
Experimental: as §1

MOLT-4 = assay: NCI in vitro DTP human cell line screen, MOLT-4; details: Leukemia, 1.00E−5 Molar
Experimental: as §1

RXF 393 = assay: NCI in vitro DTP human cell line screen, RXF 393; details: Renal Cancer, 1.00E−5 Molar
Experimental: as §1

MCF7 = assay: NCI in vitro DTP human cell line screen, MCF7; details: Breast Cancer, 1.00E−5 Molar
Experimental: as §1

BT-549 = assay: NCI in vitro DTP human cell line screen, BT-549; details: Breast Cancer, 1.00E−5 Molar
Experimental: as §1

SF-295 = assay: NCI in vitro DTP human cell line screen, SF-295; details: CNS Cancer, 1.00E−5 Molar
Experimental: as §1

[1] = MTT assay, HEL299 fibroblast; details: human
Description: Please refer to FIG. 4C, various cell viabilities of the HEL299 cell lines can be obtained through the MTT assay while the compounds No. 1˜30 are used to treat HEL299 cell lines, wherein HEL299 cell lines are fibroblast.

SR = assay: NCI in vitro DTP human cell line screen, SR; details: Leukemia, 1.00E−5 Molar
Experimental: as §1

PC-3 = assay: NCI in vitro DTP human cell line screen, PC-3; details: Prostate Cancer, 1.00E−5 Molar
Experimental: as §1

K562 = assay: NCI in vitro DTP human cell line screen, K562; details: Leukemia, 1.00E−5 Molar
Experimental: as §1

A3 cell lines = assay: MTT assay, A3 cell lines (lung cancer stem cell)
Description: Please to FIG. 4B, various cell viabilities of the A3 cell lines can be obtained through the MTT assay and illustrated in FIG. 4B while the compounds No. 1˜30 are used to treat A3 cell lines, wherein A3 cell lines are lung cancer stem cell.

SK-OV-3 = assay: NCI in vitro DTP human cell line screen, SK-OV-3; details: Ovarian Cancer, 1.00E−5 Molar
Experimental: as §1

SF-268 = assay: NCI in vitro DTP human cell line screen, SF-268; details: CNS Cancer, 1.00E−5 Molar
Experimental: as §1

SNB-75 = assay: NCI in vitro DTP human cell line screen, SNB-75; details: CNS Cancer, 1.00E−5 Molar
Experimental: as §1

SK-MEL-2 = assay: NCI in vitro DTP human cell line screen, SK-MEL-2; details: Melanoma, 1.00E−5 Molar
Experimental: as §1

DU145 = assay: NCI in vitro DTP human cell line screen, DU145; details: Prostate Cancer, 1.00E−5 Molar
Experimental: as §1

SK-MEL-5 = assay: NCI in vitro DTP human cell line screen, SK-MEL-5; details: Melanoma, 1.00E−5 Molar
Experimental: as §1

LOX IMVI = assay: NCI in vitro DTP human cell line screen, LOX IMVI; details: Melanoma, 1.00E−5 Molar
Experimental: as §1

UACC-257 = assay: NCI in vitro DTP human cell line screen, UACC-257; details: Melanoma, 1.00E−5 Molar
Experimental: as §1

MDA-MB-468 = assay: NCI in vitro DTP human cell line screen, MDA-MB-468; details: Breast Cancer, 1.00E−5 Molar
Experimental: as §1

MDA-MB-435 = assay: NCI in vitro DTP human cell line screen, MDA-MB-435; details: Melanoma, 1.00E−5 Molar
Experimental: as §1

HS 578-T = assay: NCI in vitro DTP human cell line screen, HS 578-T; details: Breast Cancer, 1.00E−5 Molar
Experimental: as §1

HT29 = assay: NCI in vitro DTP human cell line screen, HT29; details: Colon Cancer, 1.00E−5 Molar
Experimental: as §1

UO-31 = assay: NCI in vitro DTP human cell line screen, UO-31; details: Renal Cancer, 1.00E−5 Molar
Experimental: as §1

NCI-H522 = assay: NCI in vitro DTP human cell line screen, NCI-H522; details: Non-Small Cell Lung Cancer, 1.00E−5 Molar
Experimental: as §1

SK-MEL-28 = assay: NCI in vitro DTP human cell line screen, SK-MEL-28; details: Melanoma, 1.00E−5 Molar
Experimental: as §1

UACC-62 = assay: NCI in vitro DTP human cell line screen, UACC-62; details: Melanoma, 1.00E−5 Molar
Experimental: as §1

NCI/ADR-RES = assay: NCI in vitro DTP human cell line screen, NCI/ADR-RES; details: Ovarian Cancer, 1.00E−5 Molar
Experimental: as §1

SW-620 = assay: NCI in vitro DTP human cell line screen, SW-620; details: Colon Cancer, 1.00E−5 Molar
Experimental: as §1

CAKI-1 = assay: NCI in vitro DTP human cell line screen, CAKI-1; details: Renal Cancer, 1.00E−5 Molar
Experimental: as §1

O=c1c2ccccc2sc2c(Cl)c(Sc3ccccc3)ccc12 [No. 6, 4-Chloro-3-(phenylthio)-9H-thioxanthen-9-one]
Growth Percent (ACHN): 94.03% | Growth Percent (HCT-116): 98.18% | Growth Percent (MOLT-4): 99.77% | Growth Percent (RXF 393): 110.95% | Growth Percent (MCF7): 82.14% | Growth Percent (BT-549): 107.30% | Growth Percent (SF-295): 100.33% | viability [1]: 107 ± 2.62% | Growth Percent (SR): 91.41% | Growth Percent (PC-3): 90.81% | Growth Percent (K562): 101.65% | cell viabilities of A3 cell lines (MTT assay) (A3 cell lines): 103 ± 13.0% | Growth Percent (SK-OV-3): 96.13% | Growth Percent (SF-268): 93.39% | Growth Percent (SNB-75): 82.75% | Growth Percent (SK-MEL-2): 104.71% | Growth Percent (DU145): 108.05% | Growth Percent (SK-MEL-5): 95.50% | Growth Percent (LOX IMVI): 96.25% | Growth Percent (UACC-257): 102.79% | Growth Percent (MDA-MB-468): 82.54% | Growth Percent (MDA-MB-435): 103.22% | Growth Percent (HS 578-T): 119.59% | Growth Percent (HT29): 102.56% | Growth Percent (UO-31): 73.68% | Growth Percent (NCI-H522): 84.11% | Growth Percent (SK-MEL-28): 113.07% | Growth Percent (UACC-62): 79.70% | Growth Percent (NCI/ADR-RES): 96.88% | Growth Percent (SW-620): 96.96% | Growth Percent (CAKI-1): 84.00%
